One assay deals with INA-6. The assay is described as follows: Cell viability assay (annexin V-FITC/propidium iodide, flow cytometry) in INA-6 multiple myeloma cells. It counts as cell-based, human. The procedure:
The effect of pharmacological Hsp70 inhibition on cell viability was analyzed after 72 hours of treatment in both non-malignant (mononuclear cells from the peripheral blood) and malignant lymphocytes (multiple myeloma cells). The mononuclear cells were separated from the peripheral blood of healthy donors by Ficoll-Hypaque density gradient centrifugation. The human cell line INA-6 represents a well-established model for multiple myeloma. The percentage of viable and apoptotic cell fractions was assessed using an annexin V-FITC/propidium iodide (PI) staining kit (Bender MedSystems, Vienna, Austria) according to manufacturer's instructions. In brief, cells were washed in PBS, incubated for 10 min in 100 ml binding buffer (10 mM HEPES/NaOH, pH 7.4, 140 mM NaCl, 2.5 mM CaCl2) containing 2.5 ml annexin V-FITC mix and 1 mg/ml propidium iodide (PI), subsequently diluted with 100 ml binding buffer and analyzed by flow cytometry (FACSCalibur/CELLQuest; Becton Dickinson, Heidelberg, Germany). Whereas viable cells are negative for both, annexin V-FITC and PI, early apoptotic cells show a positive annexin V-FITC staining, and cells in a late apoptotic stage which lose their membrane integrity additionally incorporate DNA-binding PI. To establish kill curves, concentrations of the tested compounds were titrated, and the measured viable cell fractions were further analyzed using the Prism Calculation Software (GraphPad Software Inc., La Jolla, USA).
In FIG. 2A Western blot analyses of caspases 9 and 3, and the caspase substrate PARP (upper panel), and viability analyses (lower panel) of INA-6 MM cells upon treatment with trans-7b for 24 hours are shown. INA-6 cells were either incubated with DMSO (as a solvent control) or with 0.6 μM of trans-7b, and additionally incubated either with DMSO or the pan-caspase inhibitor Z-VAD-FMK prior to analyses by Western or viability assessment (without Z-VAD-FMK co-treatment) by Annexin V/propidum iodide double staining. For Western analyses INA-6 cell pellets were dissolved in lysis buffer (20 mM HEPES (pH 7.9), 350 mM NaCl, 1 mM MgCl2, 0.5 mM EDTA, 0.1 mM EGTA, 1% NP40, 0.5 mM dithiothreiol (DTT), 1 mM Na3VO4, 0.1 mM PMSF and 1 μg/ml aprotinin). Lysates were cleared by centrifugation, measured by quantitative protein assay (Bio-Rad, München, Germany) and subjected to SDS gel electrophoresis. Proteins were transferred onto nitrocellulose membranes (Schleicher & Schuell, Dassel, Germany), incubated with antibodies specific for caspase 9, caspase 3 or PARP (Cell Signaling Technology, Frankfurt a.Main, Germany) according to standard procedures and visualized with secondary anti-rabbit horseradish peroxidase (HRP)-conjugated antibodies using an enhanced chemoluminescence detection system (ECL, Amersham, Freiburg, Germany). […] Annexin V/propidium iodide (PI) staining was performed using a fluorescein isothiocyanate (FITC) conjugated recombinant human annexin/propidium iodide kit (BenderMedSystems, Vienna, Austria) according to the manufacturer's instructions. INA-6 cells were washed in PBS, incubated for 15 minutes in 100 ml binding buffer (10 mM HEPES/NaOH, pH 7.4, 140 mM NaCl, 2.5 mM CaCl2) containing 2.5 mL annexin V-FITC mix and 1 mg/ml PI and analyzed by flow cytometry (FACSCalibur/CELLQuest; Becton Dickinson, Heidelberg, Germany). Whereas early apoptosis is characterized by positive annexin V-FITC staining reaction, cells in a late apoptotic stage lose their membrane integrity and additionally incorporate PI. Thus, the fraction of viable cells remains negative for both annexin V-FITC and PI. […] Based on the above described experiments also viability analyses of INA-6 in comparison with non-malignant PBMCs were performed choosing a longer incubation time (72 hours) as shown in FIG. 2B or C. Raw data of three independent experiments have been calculated to establish means, standard deviation and dose-effect curves of trans-7b.
Background: In flow cytometry, cells or beads pass a laser one at a time.

A further assay concerns the target T1, HSP72 (Homo sapiens, UniProt P0DMV8).
T1 construct: endogenous in cells; host or cells: INA-6 multiple myeloma cells
The assay is described as follows: Western blot analysis of HSP72 expression in INA-6 cells. The class given is cell-based. The settings on record: INA-6, 0.6 μM, with Z-VAD-FMK 50 μM. The procedure: (§1) Western Blot Analysis. Protein expression levels were determined with Western blotting procedures (M. Chatterjee, et al., Blood 2002, 100, 3311-3318). Following separation by SDS-PAGE, proteins were transferred onto nitrocellulose membranes (Schleicher & Schuell, Dassel, Germany) and stained with antibodies against Hsp72, Hsp73, Hsp90 (all from Enzo Life Science, Lörrach, Germany), AIF, lamin A, caspases 9 and 3, PARP (all from Santa Cruz, Heidelberg, Germany). An anti-α tubulin antibody (Sigma, Deisenhofen, Germany) was employed to assess equal loading. Secondary antibodies used were anti-rat (Enzo Life Science), anti-rabbit and anti-mouse (both from GE Healthcare, Little Chalfont, UK). […] The heat shock proteins HSP72 and HSP73 critically interact with HSP90 in order to mediate an essential chaperone function for a multitude of proteins including various signaling intermediates. According to an established HSP72/73-dependent client protein signature and its role for survival in MM, the proposed anti-HSP72/73 effect of trans-7b in the INA-6 multiple myeloma (MM) cell line model was evaluated. […] Lysates were cleared by centrifugation, measured by quantitative protein assay (Bio-Rad, München, Germany) and subjected to SDS gel electrophoresis. […]
A general note: Immunoblotting shows a protein as a band on a membrane.

The next assay addresses T2, HSP73 (Homo sapiens, UniProt P11142).
T2 construct: endogenous in cells; host or cells: INA-6 multiple myeloma cells
The assay can be described thus: Western blot analysis of HSP73 expression in INA-6 cells. The class given is cell-based. As to conditions: INA-6, 0.6 μM, with Z-VAD-FMK 50 μM. The procedure: as §1

For a further assay, the system named is HSP90. The assay can be described thus: Western blot analysis of HSP90 expression in INA-6 cells. The class given is cell-based, human. As to conditions: INA-6, 0.6 μM, with Z-VAD-FMK 50 μM. As to the method: as §1

“Also recorded” adds a separate entry of the source.

T1 sequence (P0DMV8 whole entry): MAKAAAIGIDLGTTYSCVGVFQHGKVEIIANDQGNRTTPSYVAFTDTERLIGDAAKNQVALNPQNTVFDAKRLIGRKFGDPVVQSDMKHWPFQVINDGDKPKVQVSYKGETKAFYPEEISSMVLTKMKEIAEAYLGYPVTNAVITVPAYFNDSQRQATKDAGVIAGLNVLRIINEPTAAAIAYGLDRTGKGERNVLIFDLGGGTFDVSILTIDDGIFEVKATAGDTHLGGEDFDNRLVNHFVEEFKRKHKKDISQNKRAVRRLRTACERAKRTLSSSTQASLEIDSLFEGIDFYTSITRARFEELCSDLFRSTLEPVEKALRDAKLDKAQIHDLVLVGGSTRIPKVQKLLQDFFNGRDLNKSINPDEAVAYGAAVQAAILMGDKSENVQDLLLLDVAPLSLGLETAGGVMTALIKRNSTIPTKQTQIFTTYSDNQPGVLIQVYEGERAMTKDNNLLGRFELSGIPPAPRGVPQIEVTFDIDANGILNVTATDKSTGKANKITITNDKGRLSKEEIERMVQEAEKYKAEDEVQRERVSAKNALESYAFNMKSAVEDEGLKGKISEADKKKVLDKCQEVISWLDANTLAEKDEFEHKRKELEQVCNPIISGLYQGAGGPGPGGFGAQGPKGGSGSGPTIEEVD
T2 sequence (P11142 whole entry): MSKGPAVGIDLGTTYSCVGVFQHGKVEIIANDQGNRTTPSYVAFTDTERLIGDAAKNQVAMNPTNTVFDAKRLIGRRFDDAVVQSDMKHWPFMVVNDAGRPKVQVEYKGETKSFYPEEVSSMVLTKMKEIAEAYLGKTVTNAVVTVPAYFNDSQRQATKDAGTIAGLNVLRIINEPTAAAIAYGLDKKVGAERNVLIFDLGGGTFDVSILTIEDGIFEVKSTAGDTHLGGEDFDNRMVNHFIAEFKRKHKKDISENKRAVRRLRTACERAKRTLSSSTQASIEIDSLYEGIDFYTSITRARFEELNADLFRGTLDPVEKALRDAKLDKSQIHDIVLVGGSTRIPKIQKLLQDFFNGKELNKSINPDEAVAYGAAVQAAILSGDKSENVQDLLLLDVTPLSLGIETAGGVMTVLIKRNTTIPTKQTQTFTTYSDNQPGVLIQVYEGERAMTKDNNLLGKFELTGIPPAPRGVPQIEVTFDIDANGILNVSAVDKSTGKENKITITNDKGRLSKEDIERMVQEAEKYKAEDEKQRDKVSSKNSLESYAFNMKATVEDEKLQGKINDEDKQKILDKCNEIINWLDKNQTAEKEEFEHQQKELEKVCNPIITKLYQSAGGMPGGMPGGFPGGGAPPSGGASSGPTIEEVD

A word on the EC50: it is the concentration at which the effect is half-maximal. On to `COc1ccc(C2C(C(=O)Nc3cccc(C)n3)c3ccccc3C(=O)N2c2ccccc2)cc1` (stereo not drawn) [trans-7b, trans-3-(4-Methoxyphenyl)-N-(6-methylpyridin-2-yl)-1-oxo-2-phenyl-1,2,3,4-tetrahydroisoquinoline-4-carboxamide], for which, in the assay with INA-6 (0.6 μM, 24 hours, Annexin V/propidium iodide), the “viability of INA-6 cells in comparison with the DMSO control (100%)” value was “drastically decreased”. For the same compound, in the assay on INA-6 (72 hours, three independent experiments), the “sensitivity of INA-6 tumor cells (viability, dose-effect curves)” value is “highly sensitive (in a low micromolar range)”. In addition, the EC50 with INA-6 (Homo sapiens, INA-6, 72 h, INA-6 multiple myeloma cells, 72 hours of treatment, viable cell fraction, mean of at least three determinations, read-out: INA-6 EC50(±sdv)) amounted to 410 nM. Besides, the “HSP72 constitutive expression level” value at HSP72 is listed as “decreases; also recorded: reduced”. In addition, the “HSP73 constitutive expression level” value at HSP73 is reported as “decreases; also recorded: reduced”. For the same compound, the HSP90 expression result with HSP90 is reported as “remains unchanged”.

For the origin of these results see patent US9975853B2, “Tetrahydroisoquinolinone derivatives and their use in the inhibition of the HSP70 protein” (Julius-Maximilians-Universitaet Wuerzburg, priority 2014, dated 2018).
